Data on 3 molecules can be found in patent US9763923B2, “Composition for reducing senescence of cell or subject including BRAF inhibitor and use thereof” (Samsung Electronics Co., Ltd., priority 2015, dated 2017).

What all share (format): cell-based
The test system of experiment [1] is senescent human dermal fibroblast (HDF) M11 cells. The experiment is described as follows: Relative proliferation rate of senescent cells (SYBR Green I DNA quantification). The note with it: 5 μM, about 3 weeks, vs DMSO negative control. Here is the method:
(§1) In order to examine whether senescent cells proliferate in response to treatment with BRAF inhibitors, human dermal fibroblast (HDF) M11 cells taken from a child are cultured in Dulbecco's Modified Eagle's Medium (DMEM) containing a high concentration of glucose, glutamine, and pyruvate, and 10% (v/v) fetal bovine serum (FBS), and 1× penicillin/streptomycin at about 37° C. and 5% CO2 atmosphere, thereby obtaining senescent cells. As for the senescent cells, cells that are passaged 35 times and whose doubling time is about 10 days or longer are used.
The prepared senescent cells are inoculated at a density of 1000 cells/well in a 96-well plate. The BRAF inhibitor is added to the inoculated cells at a final concentration of 5 μM. SB590885, vemurafenib (PLX4032, RG7204), TAK-632, CEP-32496, GDC-0879, PLX-4720, ZM 336372, Sorafenib tosylate, Sorafenib, GW5074, Dabrafenib (GSK2118436), AZ 628, RAF265 (CHIR-265), and NVP-BHG712 are used as BRAF inhibiting drugs. Cells treated with dimethyl sulfoxide (DMSO) (Sigma-Aldrich) alone are used as a negative control group. The medium is replaced with a fresh medium containing the drug or DMSO alone once every four days. About 3 weeks after initial addition of the drug, 0.1% (w/v) SYBR Green I (Life Technologies, Cat. No. S-7563) is used to quantify DNA, and the number of cells is calculated from the DNA quantity measured.
The number of the senescent cells in the drug-treated group is compared to the number of the cells in the negative control group so as to calculate a relative proliferation rate. The relative proliferation rates of senescent cells treated with BRAF inhibitors to that of the negative control group are shown in FIG. 1.
The senescent cells prepared as described in 1 are inoculated at a density of 1000 cells/well in a 96-well plate. […]
Then, SYBR Green I (Life Technologies, Cat. No. S-7563) is used to quantify DNA in the senescent cells thus cultured, and the number of cells is calculated from the DNA quantity measured. […]

For experiment [2] the test system is unchanged. In words: Mitochondrial reactive oxygen species (MitoSOX Red). The note with it: 0.1 μM, about 3 weeks, vs DMSO. Here is the method: as §1
(§2) As described in 1, 0.1 μM SB590885 is added to the prepared senescent cells, which are cultured in the presence of SB590885 for about 3 weeks. Cells treated with DMSO (Sigma-Adrich) alone are used as a negative control group.
In order to measure mitochondrial function in senescent cells, the amount of reactive oxygen species (ROS) in the prepared senescent cells is measured using a MitoSOX™ Red Mitochondrial Superoxide indicator (Life technologies). A relative ROS amount of the senescent cells cultured in the presence of SB590885 to that of the negative control group is shown in FIG. 4B. […] Accordingly, SB590885 inhibits mitochondrial damage in senescent cells.
As described in 3(2), the amount of ROS in the senescent cells is measured. A relative ROS ratio of the senescent cells cultured in the presence of TAK-632 to the negative control group is calculated.
As described in 3.(2), the amount of ROS in the senescent cells is measured. A relative ROS ratio of the senescent cells cultured in the presence of vemurafenib to the negative control group is calculated.

Experiment [3] shares this test system. The experiment is described as follows: Lysosome accumulation (LysoTracker Blue DND-22, FACS). As to conditions: 0.1 μM, about 3 weeks, vs DMSO. As for the experimental part: as §1, §2
In order to measure lysosome accumulation in senescent cells, the prepared senescent cells are stained using a LysoTracker®Blue DND-22 (Life Technologies, Cat. No. L-7525). The amount of lysosome is quantified by measuring the fluorescent radiation having a wavelength of 422 nm while irradiating the stained senescent cells with rays having a wavelength at about 373 nm using a FACSCaliber (Beckton Dickson). The amount (%) of lysosome in the cells cultured in the presence of SB590885 relative to that of the negative control group is shown in FIG. 4C.
As described in 3(2), the amount of lysosomes in senescent cells is measured and the amount (%) of lysosome in the cells cultured in the presence of TAK-632 relative to that of the negative control group is shown in FIG. 5C.
As described in 3.(2), the amount of lysosomes in senescent cells is measured and the amount (%) of lysosome in the cells cultured in the presence of vemurafenib relative to that of the negative control group is shown in FIG. 6C.

The test system is the same in experiment [4]. The experiment is described as follows: Lipofuscin accumulation by autofluorescence (FACS). As to conditions: 0.1 μM, about 3 weeks, vs DMSO. Here is the method:
as §1, §2
As lipofuscin in senescent cells emits autofluorescence, accumulation of lipofuscin is analyzed by measuring the fluorescent radiation having a wavelength of 520 nm while irradiating the senescent cells with rays having a wavelength at about 488 nm using a FACSCaliber (Beckton Dickson). A relative autofluorescence ratio of the senescent cells cultured in the presence of SB590885 to the negative control group is calculated.
As described in 1, 0.1 μM TAK-632 is added to the prepared senescent cells, which are cultured in the presence of TAK-632 for about 3 weeks. Cells treated with DMSO (Sigma-Adrich) alone are used as a negative control group.
As described in 3(2), autofluorescence in the senescent cells is measured and a relative autofluorescence ratio of the senescent cells cultured in the presence of TAK-632 to the negative control group is calculated.
As described in 1, 0.1 μM vemurafenib is added to the prepared senescent cells, which are cultured in the presence of vemurafenib for about 3 weeks. Cells treated with DMSO (Sigma-Adrich) alone are used as a negative control group.
As described in 3.(2), autofluorescence in the senescent cells is measured and a relative autofluorescence ratio of the senescent cells cultured in the presence of vemurafenib to the negative control group is calculated.

Take `N#Cc1c(Oc2ccc(F)c(NC(=O)Cc3cccc(C(F)(F)F)c3)c2)ccc2nc(NC(=O)C3CC3)sc12` [TAK-632]: the “proliferation rate higher than the negative control group” value in experiment [1] is “about 30%”. Also, the “decrease in the amount of ROS compared to negative control group” value (shortened to “decrease in the amount of ROS”) in experiment [2] was approximately 40%. The “decrease in lysosome accumulation compared to negative control group” value (“decrease in lysosome accumulation” for short) in experiment [3] is listed as approximately 40%. Further, the “decrease in lipofuscin compared to negative control group” value (“decrease in lipofuscin” below) in experiment [4] is reported as approximately 48%.
As for `CN(C)CCOc1ccc(-c2nc(-c3ccncc3)c(-c3ccc4c(c3)CC/C4=N\O)[nH]2)cc1` [SB590885], the “proliferation rate higher than the negative control group” value in experiment [1] is on record as “about 30%”. Besides, in experiment [2], the “ROS relative to negative control group” value is on record as “about 38%” and the “decrease in the amount of ROS” value is reported as “about 60%”. For the same molecule, the “decrease in lysosome accumulation” value in experiment [3] is listed as “about 25%”. For the same molecule, in experiment [4], the “autofluorescence relative to negative control group” value is “about 28%” and the “decrease in lipofuscin” value was found to be 70%.
`CCCS(=O)(=O)Nc1ccc(F)c(C(=O)c2c[nH]c3ncc(-c4ccc(Cl)cc4)cc23)c1F` [vemurafenib]: the “proliferation rate higher than the negative control group” value in experiment [1] is given as “about 30%”. Moreover, in experiment [2], the “decrease in the amount of ROS” value is reported as “about 40%”. In addition, in experiment [3], the “decrease in lysosome accumulation” value is given as “about 40%”. Further, the “decrease in lipofuscin” value in experiment [4] was “about 60%”.
